Assay results reported in article PMC4698017 (Science (New York, N.Y.), 2015).
Positions count from the first letter of the chain named.

Legend:
Sestrin2 (FLAG-Sestrin2) [1] = molecular target: T1, Sestrin2 (FLAG-Sestrin2) (Homo sapiens, UniProt P58004, S190W); assay: [3H]Leucine binding, FLAG immunoprecipitate on beads; settings: labelled compound
T1 sequence (P58004 1-480 S190W): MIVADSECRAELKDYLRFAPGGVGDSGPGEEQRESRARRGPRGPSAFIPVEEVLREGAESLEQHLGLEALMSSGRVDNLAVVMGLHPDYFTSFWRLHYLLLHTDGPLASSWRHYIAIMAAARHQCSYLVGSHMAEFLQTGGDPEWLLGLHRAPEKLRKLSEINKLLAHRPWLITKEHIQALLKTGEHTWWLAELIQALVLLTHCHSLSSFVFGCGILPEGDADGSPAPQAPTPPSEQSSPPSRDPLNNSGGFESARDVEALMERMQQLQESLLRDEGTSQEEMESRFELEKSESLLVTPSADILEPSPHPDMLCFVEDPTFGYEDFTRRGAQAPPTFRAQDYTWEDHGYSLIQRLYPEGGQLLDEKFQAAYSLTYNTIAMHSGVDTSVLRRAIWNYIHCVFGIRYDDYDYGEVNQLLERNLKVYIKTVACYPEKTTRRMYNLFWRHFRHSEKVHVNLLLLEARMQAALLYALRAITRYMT

[2] = molecular target: T2, His-MBP-Sestrin2 (bacterially-produced Sestrin2) (Homo sapiens, UniProt P58004); assay: thermal shift assay, Sypro orange; format: binding; settings: maximal shift
T2 sequence (P58004 1-480): T1 sequence (P58004 1-480 S190W) with W190S

Sestrin3 = molecular target: T3, Sestrin3 (Homo sapiens, UniProt P58005); assay: [3H]Leucine binding, FLAG immunoprecipitate on beads; settings: labelled compound
T3 sequence (P58005 1-492): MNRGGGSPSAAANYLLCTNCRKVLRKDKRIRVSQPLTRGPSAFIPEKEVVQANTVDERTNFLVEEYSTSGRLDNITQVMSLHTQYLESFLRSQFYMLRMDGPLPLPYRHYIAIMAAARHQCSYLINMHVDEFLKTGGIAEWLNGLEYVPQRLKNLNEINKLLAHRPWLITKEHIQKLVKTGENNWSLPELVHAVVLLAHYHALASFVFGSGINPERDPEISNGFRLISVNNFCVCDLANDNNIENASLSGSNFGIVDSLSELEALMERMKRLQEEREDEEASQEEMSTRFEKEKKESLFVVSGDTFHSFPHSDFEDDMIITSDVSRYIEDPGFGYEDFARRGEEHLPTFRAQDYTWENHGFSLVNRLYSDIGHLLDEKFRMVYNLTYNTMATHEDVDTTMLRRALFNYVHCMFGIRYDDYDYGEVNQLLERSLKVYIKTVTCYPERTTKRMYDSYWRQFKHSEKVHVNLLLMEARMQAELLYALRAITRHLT

Sestrin1 (two isoforms) = molecular target: T4, Sestrin1 (two isoforms) (Homo sapiens, UniProt Q9Y6P5); assay: as above; settings: labelled compound
T4 sequence (Q9Y6P5 1-492): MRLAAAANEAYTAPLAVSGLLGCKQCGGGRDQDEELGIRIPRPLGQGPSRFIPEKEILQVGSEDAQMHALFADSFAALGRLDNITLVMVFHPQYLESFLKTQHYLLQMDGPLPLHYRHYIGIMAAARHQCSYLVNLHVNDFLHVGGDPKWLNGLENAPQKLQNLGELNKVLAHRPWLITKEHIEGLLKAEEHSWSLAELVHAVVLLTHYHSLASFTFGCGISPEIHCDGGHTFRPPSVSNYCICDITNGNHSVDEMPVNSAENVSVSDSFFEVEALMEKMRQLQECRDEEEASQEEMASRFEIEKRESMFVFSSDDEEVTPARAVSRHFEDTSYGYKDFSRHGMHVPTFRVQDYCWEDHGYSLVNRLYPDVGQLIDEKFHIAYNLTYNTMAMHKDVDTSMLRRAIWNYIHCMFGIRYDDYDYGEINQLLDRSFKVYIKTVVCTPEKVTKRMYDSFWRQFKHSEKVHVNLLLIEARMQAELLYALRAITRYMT

Sestrin2 (FLAG-Sestrin2) [3] = molecular target: T5, Sestrin2 (FLAG-Sestrin2) (Homo sapiens, UniProt P58004, L261A); assay: as above; settings: labelled compound
T5 sequence (P58004 1-480 L261A): T1 sequence (P58004 1-480 S190W) with W190S, L261A

Sestrin2 (FLAG-Sestrin2) [4] = molecular target: T6, Sestrin2 (FLAG-Sestrin2) (Homo sapiens, UniProt P58004, E451A); assay: as above; settings: labelled compound
T6 sequence (P58004 1-480 E451A): T1 sequence (P58004 1-480 S190W) with W190S, E451A

Sestrin2-GATOR2 complex = Sestrin2-GATOR2 complex (Homo sapiens, UniProt P58004); assay: disruption of immunopurified Sestrin2-GATOR2 complex, immunoblot; format: binding; settings: 300 µM amino acid
Chain of Sestrin2-GATOR2 complex (P58004 whole entry): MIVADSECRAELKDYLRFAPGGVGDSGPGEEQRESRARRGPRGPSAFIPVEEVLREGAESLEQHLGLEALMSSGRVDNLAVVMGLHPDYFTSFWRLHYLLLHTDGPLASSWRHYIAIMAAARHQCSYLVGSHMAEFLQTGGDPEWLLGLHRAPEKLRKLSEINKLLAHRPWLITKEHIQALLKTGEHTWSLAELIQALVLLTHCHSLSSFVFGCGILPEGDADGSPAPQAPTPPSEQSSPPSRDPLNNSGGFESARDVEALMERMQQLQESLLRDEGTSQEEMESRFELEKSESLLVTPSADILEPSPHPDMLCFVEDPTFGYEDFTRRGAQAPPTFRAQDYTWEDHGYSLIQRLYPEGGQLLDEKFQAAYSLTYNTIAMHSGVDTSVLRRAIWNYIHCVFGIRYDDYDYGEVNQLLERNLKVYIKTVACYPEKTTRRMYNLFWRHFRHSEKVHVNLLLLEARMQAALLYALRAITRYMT
Chain of Sestrin2-GATOR2 complex (Q96S15 whole entry partner): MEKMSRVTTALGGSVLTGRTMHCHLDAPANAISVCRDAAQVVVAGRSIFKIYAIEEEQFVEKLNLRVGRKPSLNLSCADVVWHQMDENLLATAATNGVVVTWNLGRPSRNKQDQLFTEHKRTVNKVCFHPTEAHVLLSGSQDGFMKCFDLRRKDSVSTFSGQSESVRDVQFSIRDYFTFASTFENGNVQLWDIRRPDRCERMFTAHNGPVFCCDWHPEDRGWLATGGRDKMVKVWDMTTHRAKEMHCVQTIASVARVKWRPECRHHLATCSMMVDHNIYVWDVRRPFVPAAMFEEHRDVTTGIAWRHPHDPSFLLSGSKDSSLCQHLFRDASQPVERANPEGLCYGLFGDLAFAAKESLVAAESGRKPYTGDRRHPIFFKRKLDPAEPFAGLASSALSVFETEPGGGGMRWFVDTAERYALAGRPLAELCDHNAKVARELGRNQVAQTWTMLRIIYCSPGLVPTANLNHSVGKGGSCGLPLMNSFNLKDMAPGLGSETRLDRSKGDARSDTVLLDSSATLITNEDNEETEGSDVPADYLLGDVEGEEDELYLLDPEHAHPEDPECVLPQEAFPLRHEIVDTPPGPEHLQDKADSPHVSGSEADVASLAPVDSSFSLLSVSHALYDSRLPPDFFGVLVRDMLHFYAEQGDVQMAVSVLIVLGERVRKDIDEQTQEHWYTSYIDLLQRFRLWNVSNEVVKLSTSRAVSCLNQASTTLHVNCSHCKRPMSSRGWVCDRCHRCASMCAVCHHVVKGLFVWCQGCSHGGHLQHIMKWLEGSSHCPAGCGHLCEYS
Chain of Sestrin2-GATOR2 complex (Q9NXC5 whole entry partner): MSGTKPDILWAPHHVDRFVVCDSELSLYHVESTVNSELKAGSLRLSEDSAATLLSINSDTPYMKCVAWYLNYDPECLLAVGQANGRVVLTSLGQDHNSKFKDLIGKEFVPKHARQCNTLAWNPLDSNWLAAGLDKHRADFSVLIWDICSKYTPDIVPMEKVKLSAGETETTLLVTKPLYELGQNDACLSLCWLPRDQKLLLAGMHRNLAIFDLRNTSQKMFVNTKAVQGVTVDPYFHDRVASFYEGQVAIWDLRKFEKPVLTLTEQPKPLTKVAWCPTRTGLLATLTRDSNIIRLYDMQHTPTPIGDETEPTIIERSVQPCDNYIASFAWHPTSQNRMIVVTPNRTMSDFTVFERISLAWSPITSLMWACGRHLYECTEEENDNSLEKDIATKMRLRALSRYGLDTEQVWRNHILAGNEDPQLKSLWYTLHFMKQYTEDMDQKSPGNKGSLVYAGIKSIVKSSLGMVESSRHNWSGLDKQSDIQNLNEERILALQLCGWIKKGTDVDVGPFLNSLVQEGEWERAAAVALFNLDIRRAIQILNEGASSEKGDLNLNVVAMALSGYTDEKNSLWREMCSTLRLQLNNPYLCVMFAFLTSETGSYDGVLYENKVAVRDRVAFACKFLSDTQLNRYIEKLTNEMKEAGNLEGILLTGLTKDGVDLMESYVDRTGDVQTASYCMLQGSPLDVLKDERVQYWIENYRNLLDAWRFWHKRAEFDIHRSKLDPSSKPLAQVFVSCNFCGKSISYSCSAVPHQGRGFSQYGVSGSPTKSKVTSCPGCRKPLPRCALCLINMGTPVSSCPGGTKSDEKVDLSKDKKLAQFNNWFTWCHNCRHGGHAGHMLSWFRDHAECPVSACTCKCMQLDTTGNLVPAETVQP
Chain of Sestrin2-GATOR2 complex (Q6PJI9 whole entry partner): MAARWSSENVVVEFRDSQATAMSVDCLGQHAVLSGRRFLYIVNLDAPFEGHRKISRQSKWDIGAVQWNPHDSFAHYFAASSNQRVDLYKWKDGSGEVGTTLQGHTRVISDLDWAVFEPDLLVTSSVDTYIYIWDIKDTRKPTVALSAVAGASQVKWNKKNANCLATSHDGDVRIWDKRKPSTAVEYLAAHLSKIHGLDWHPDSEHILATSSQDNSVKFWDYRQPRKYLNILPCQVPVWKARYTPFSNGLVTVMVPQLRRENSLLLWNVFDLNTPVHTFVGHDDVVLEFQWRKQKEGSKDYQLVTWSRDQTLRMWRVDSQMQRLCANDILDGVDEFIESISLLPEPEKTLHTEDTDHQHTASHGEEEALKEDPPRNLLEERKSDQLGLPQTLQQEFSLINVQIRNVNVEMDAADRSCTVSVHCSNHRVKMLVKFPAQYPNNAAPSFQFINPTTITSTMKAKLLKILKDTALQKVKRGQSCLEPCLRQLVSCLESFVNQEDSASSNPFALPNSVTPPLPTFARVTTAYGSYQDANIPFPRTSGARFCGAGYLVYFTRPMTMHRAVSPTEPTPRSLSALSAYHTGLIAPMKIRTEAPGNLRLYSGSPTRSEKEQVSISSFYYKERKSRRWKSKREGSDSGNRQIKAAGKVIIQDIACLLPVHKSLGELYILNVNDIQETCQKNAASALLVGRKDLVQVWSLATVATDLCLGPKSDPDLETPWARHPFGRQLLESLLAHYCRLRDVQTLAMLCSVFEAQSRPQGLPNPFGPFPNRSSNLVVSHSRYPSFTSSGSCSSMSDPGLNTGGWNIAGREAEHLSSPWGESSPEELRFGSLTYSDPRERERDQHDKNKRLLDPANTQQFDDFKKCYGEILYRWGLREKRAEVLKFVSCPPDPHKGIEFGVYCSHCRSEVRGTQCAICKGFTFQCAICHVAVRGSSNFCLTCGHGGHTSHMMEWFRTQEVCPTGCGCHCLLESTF
Chain of Sestrin2-GATOR2 complex (Q96EE3 whole entry partner): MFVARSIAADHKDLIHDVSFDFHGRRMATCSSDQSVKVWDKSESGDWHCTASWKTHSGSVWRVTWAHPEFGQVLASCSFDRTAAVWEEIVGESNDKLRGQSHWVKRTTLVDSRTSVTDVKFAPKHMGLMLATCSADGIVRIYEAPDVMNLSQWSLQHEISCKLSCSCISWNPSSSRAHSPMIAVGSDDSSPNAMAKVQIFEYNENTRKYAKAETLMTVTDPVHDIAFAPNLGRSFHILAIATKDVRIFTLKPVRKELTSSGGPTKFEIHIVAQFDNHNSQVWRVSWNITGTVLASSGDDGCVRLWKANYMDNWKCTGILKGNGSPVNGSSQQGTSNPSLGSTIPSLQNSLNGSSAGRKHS
Chain of Sestrin2-GATOR2 complex (P55735 2-322 partner): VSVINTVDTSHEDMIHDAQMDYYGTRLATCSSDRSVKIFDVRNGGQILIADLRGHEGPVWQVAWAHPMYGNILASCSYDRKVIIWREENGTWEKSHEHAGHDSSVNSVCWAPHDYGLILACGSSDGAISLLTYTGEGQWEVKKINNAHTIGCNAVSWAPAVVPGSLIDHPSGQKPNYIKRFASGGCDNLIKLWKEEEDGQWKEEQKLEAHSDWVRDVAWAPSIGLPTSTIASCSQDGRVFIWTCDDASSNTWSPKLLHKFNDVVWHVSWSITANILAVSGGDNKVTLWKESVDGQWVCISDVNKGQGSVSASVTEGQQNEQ

| melting temperature shift (dTm) [2] | very weak binding (Sestrin3) | Compound | [3H]Leucine binding, FLAG immunoprecipitate on beads (Sestrin2 (FLAG-Sestrin2) [1]) | [3H]Leucine binding, FLAG immunoprecipitate on beads (Sestrin1 (two isoforms)) | no appreciable binding (Sestrin2 (FLAG-Sestrin2) [3]) | no appreciable binding (Sestrin2 (FLAG-Sestrin2) [4]) | disruption of immunopurified Sestrin2-GATOR2 complex, immunoblot (Sestrin2-GATOR2 complex) |
| --- | --- | --- | --- | --- | --- | --- | --- |
| up to 8.5 °C | Sestrin3 bound very weakly | CC(C)C[C@H](N)C(=O)O [leucine] | Sestrin2 mutant (S190W) that still binds leucine | Sestrin1 bound leucine to a similar extent as did Sestrin2 | L261A and E451A, which do not bind leucine to an appreciable degree | L261A and E451A, which do not bind leucine to an appreciable degree | – |
| – | – | CC(C)[C@H](N)C(=O)O [valine] | – | – | – | – | methionine, isoleucine, and valine– had any effect on the Sestrin2-GATOR2 interaction in vitro |
